# Literature values, collected in patent publication US20220241364A1, “Composition for Lowering Blood Glucose Level, Reducing Blood Hemoglobin A1c Content, or Increasing Blood HDL-Cholesterol Content” (House Wellness Foods Corporation, priority 2019, published 2022).
# Conditions: in vivo
compound,measurement,value
CC(C)=CC(=O)C[C@H](C)c1ccc(C)cc1 [ar turmerone],elevation of blood sugar level,effect of inhibiting the elevation
